The record followed here is patent US6064908A, “Device for ionophoresis comprising at least a membrane electrode assembly, for the transcutaneous administration of active principles to a subject” (Elf Aquitaine, priority 1996, dated 2000).

For this data set the following is noted: not told.

Excerpt: In each of the determinations mentioned above, samples of the liquid contained in the receiver compartment were taken after determined durations and, by assaying the antifactor Xa activity of the said samples, the quantity of pentasaccharide which has passed into the receiver compartment through the membrane was obtained.

Turning to polyamide-11, the “Permeability (to pentasaccharide), passive” value is listed as ~ 0 μg/cm^2.
